Assay results as given in patent publication EP1508617B1, “Method for stabilizing an alanine aminotransferase and the corresponding compositions” (SYSMEX CORPORATION, priority 1998, dated 1999).
Read-outs that look alike come from different tables or passages of the source.

Target: T1, ALT (Homo sapiens, UniProt P24298)
T1 construct: purchased ASAHI CHEMICAL INDUSTRIES CO., LTD; T-71
T1 sequence (P24298 1-496): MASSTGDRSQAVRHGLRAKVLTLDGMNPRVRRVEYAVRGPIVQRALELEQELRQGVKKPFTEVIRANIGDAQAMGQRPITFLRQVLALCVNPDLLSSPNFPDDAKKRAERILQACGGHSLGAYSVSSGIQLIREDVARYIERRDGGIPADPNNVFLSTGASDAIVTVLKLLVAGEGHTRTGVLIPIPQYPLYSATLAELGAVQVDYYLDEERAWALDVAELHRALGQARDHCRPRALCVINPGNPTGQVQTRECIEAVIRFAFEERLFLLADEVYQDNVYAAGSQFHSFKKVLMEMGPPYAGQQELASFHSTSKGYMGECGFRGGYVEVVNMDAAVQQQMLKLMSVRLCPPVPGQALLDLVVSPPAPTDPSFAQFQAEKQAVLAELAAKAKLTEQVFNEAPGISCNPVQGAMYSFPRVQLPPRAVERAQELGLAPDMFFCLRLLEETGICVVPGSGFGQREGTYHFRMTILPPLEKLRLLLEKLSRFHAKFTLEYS
Assay: Stabilization effect of amino acids on ALT in control substance (residual activity after storage)
Assay type: biochemical
Conditions: for activity at 10000 µM: 96 h; for remaining activity at 1000 µM: tyrosine 1 mmol/L; for remaining activity at 5000 µM: valine 5 mmol/L; for remaining activity at 20000 µM: valine 20 mmol/L; for remaining activity at 50000 µM: valine 50 mmol/L; for remaining activity at 100000 µM: valine 100 mmol/L
Experimental: Using a human serum base and a BSA base as a medium, control substances were prepared respectively by adding, as a stabilizer, no amino acid, valine (10 mmol/L) as amino acid, proline (10 mmol/L) or other amino acid (10 mmol/L, provided that 1 mmol/L in case of tyrosine) to the respective mediums and then adding, as an enzyme, ALT (about 100 U/L).
The respective control substances thus obtained were stored at 45°C for four days and the residual activity of ALT contained in the respective control substances was measured.
CO., LTD. (manufacturing No. T-71). Furthermore, the human serum base used herein is a human serum base prepared by previously subjecting human serum to a heat treatment at 56°C for four hours thereby to devitalize an endogenous enzyme, followed by sterilization by filtration using a membrane filter of 0.2 µm in a pore diameter. The BSA base used herein is BES buffer (20 mmol/L) containing 3W/V% BSA.
With regard to the residual activity of ALT, the residual activity of ALT was measured by using an ALT reagent L "KOKUSAI" manufactured by INTERNATIONAL REAGENTS CORPORATION.
Valine and r-ALT were added to a human serum base and a BSA base in the concentration of about 100 U/L and, after storage at 45°C for four days, the residual activity was measured.

[1] = BSA base, amino acid 10 mmol/L, r-ALT about 100 U/L, stored at 45°C for four days (Example 1), read-out: Residual activity (%) of ALT
[2] = Human serum base, amino acid 10 mmol/L, r-ALT about 100 U/L, stored at 45°C for four days (Example 1), read-out: Residual activity (%) of ALT
[3] = read-out: Residual activity (%) of ALT, BSA base, amino acid 10 mmol/L, r-ALT about 100 U/L, stored at 45°C for four days (Example 1)
[4] = read-out: Residual activity (%) of ALT, Human serum base, amino acid 10 mmol/L, r-ALT about 100 U/L, stored at 45°C for four days (Example 1)
[5] = BSA base, valine 0.5 mmol/L, 45°C for four days (Example 2)
[6] = BSA base, 45°C for four days (Example 2)
[7] = Human serum base, 45°C for four days (Example 2)

Row | SMILES | activity at 10000 µM [1] [%] | activity at 10000 µM [2] [%] | also measured
1 | C[C@H](N)C(=O)O [Alanine] | 28 | 15 | 
2 | N=C(N)NCCC[C@H](N)C(=O)O [Arginine] |  |  | activity at 10000 µM [3]: 30%; activity at 10000 µM [4]: 18%
3 | NC(=O)C[C@H](N)C(=O)O [Asparagine] | 25 | 14 | 
4 | N[C@@H](CC(=O)O)C(=O)O [Aspartic acid] |  |  | remaining activity at 10000 µM [1]: 23%; remaining activity at 10000 µM [2]: 13%
5 | N[C@@H](CS)C(=O)O [Cysteine] | 24 | 14 | 
6 | N[C@@H](CCC(=O)O)C(=O)O [Glutamic acid] |  |  | remaining activity at 10000 µM [3]: 28%; remaining activity at 10000 µM [4]: 15%
7 | NC(=O)CC[C@H](N)C(=O)O [Glutamine] | 15 | 17 | 
8 | NCC(=O)O [Glycine] | 30 | 19 | 
9 | N[C@@H](Cc1c[nH]cn1)C(=O)O [Histidine] | 28 | 15 | 
10 | CC[C@H](C)[C@H](N)C(=O)O [Isoleucine] | 28 | 18 | 
11 | CC(C)C[C@H](N)C(=O)O [Leucine] | 28 | 20 | 
12 | NCCCC[C@H](N)C(=O)O [Lysine] | 31 | 20 | 
13 | CSCC[C@H](N)C(=O)O [Methionine] | 31 | 20 | 
14 | N[C@@H](CO)C(=O)O [Serine] | 32 | 19 | 
15 | C[C@@H](O)[C@H](N)C(=O)O [Threonine] | 31 | 18 | 
16 | N[C@@H](Cc1c[nH]c2ccccc12)C(=O)O [Tryptophane] | 30 | 18 | 
17 | N[C@@H](Cc1ccc(O)cc1)C(=O)O [Tyrosine] |  |  | remaining activity at 1000 µM (BSA base, r-ALT about 100 U/L, stored at 45°C for four days (Example 1)): 31%; remaining activity at 1000 µM (Human serum base, r-ALT about 100 U/L, stored at 45°C for four days (Example 1)): 18%
18 | CC(C)[C@H](N)C(=O)O [Valine] | 62 | 55 | Residual activity (%) of ALT [5]: 36%; remaining activity at 500 µM [5]: 38%; remaining activity at 5000 µM [6]: 46%; remaining activity at 10000 µM (BSA base, valine 10 mmol/L, 45°C for four days (Example 2), read-out: Residual activity (%) of ALT): 62%; remaining activity at 20000 µM [6]: 65%; remaining activity at 50000 µM [6]: 64%; remaining activity at 100000 µM [6]: 65%; remaining activity at 500 µM (Human serum base, valine 0.5 mmol/L, 45°C for four days (Example 2)): 28%; remaining activity at 5000 µM [7]: 33%; remaining activity at 10000 µM (Human serum base, valine 10 mmol/L, 45°C for four days (Example 2), read-out: Residual activity (%) of ALT): 55%; remaining activity at 20000 µM [7]: 56%; remaining activity at 50000 µM [7]: 56%; remaining activity at 100000 µM [7]: 55%
19 | N[C@@H](Cc1ccccc1)C(=O)O [phenylalanine] | 31 | 19 | 
20 | O=C(O)[C@@H]1CCCN1 [proline] | 61 | 35 | 
